Measurements from patent US20230295096A1, “PYRAZOLE CARBOXAMIDE COMPOUNDS FOR TREATMENT OF HBV” (ASSEMBLY BIOSCIENCES, INC., priority 2020, published 2023).
Like-named read-outs stand apart in the source and are kept apart here.

Tested on: HBV
Experiment: Viral load production from HepAD38 cells, qPCR of the HBV core sequence in supernatant
Type: cell-based
Conditions: HepAD38 cells, 5 days, HBV DNA in supernatant by qPCR
Method in brief: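 EC50 and CC50 come from four-parameter logistic fits of supernatant HBV core DNA (TaqMan qPCR, DNA standards, compared with DMSO wells) and of CellTiter-Glo luminescence.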

[1] = Hepatitis B virus, HePAD38, 120 h, Table 1 ranges, read-out: Activity (viral load lowering EC50)

Row | SMILES | EC50 [1] | other results
1 | Cn1nc(C2CC3CC(O)C(c4ccccc4)C3C2)c(C(=O)Nc2ccc(F)c(Cl)c2)c1N (single isomer, unassigned) [Example 141, 5-Amino-N-(3-chloro-4-fluorophenyl)-3-(5-hydroxy-4-phenyloctahydropentalen-2-yl)-1-methyl-1H-pyrazole-4-carboxamide] | – | EC50 (Hepatitis B virus, HePAD38, 120 h, Table 2 ranges, read-out: VL HepAD38 EC50 range): < 100 nM
2 | Cc1ccc(C2(O)CC3CC(c4nn(C)c(N)c4C(=O)Nc4ccc(F)c(Cl)c4)CC3C2)cc1 (stereo not drawn) [Example 6, 5-Amino-N-(3-chloro-4-fluorophenyl)-3-(5-hydroxy-5-(p-tolyl)octahydropentalen-2-yl)-1-methyl-1H-pyrazole-4-carboxamide] | < 10 nM | –
3 | CC1CCC(C(=O)NCC2CC3CC(c4nn(C)c(N)c4C(=O)Nc4ccc(F)c(Cl)c4)CC3C2)CC1 (stereo not drawn) [Example 51, 5-Amino-N-(3-chloro-4-fluorophenyl)-1-methyl-3-(5-((4-methylcyclohexane-1-carboxamido)methyl)octahydropentalen-2-yl)-1H-pyrazole-4-carboxamide] | 10 to 50 nM | –
4 | Cc1noc(C2(O)CC3CC(c4nn(C)c(N)c4C(=O)Nc4ccc(F)c(Cl)c4)CC3C2)n1 (stereo not drawn) [Example 179] | < 10 nM | –
5 | Cn1nc(C2CC3CC(N)(CS(C)(=O)=O)CC3C2)c(C(=O)Nc2ccc(F)c(Cl)c2)c1N (stereo not drawn) [Example 182] | > 500 nM | –
6 | Cn1nc(C2CC3CN(C(=O)OC4CC(F)(F)C4)CC3C2)c(C(=O)Nc2ccc(F)c(Cl)c2)c1N (stereo not drawn) [Example 118, 3,3-Difluorocyclobutyl 5-(5-amino-4-((3-chloro-4-fluorophenyl)carbamoyl)-1-methyl-1H-pyrazol-3-yl)hexahydrocyclopenta[c]pyrrole-2(1H)-carboxylate] | 50 to 500 nM | –
7 | Cn1ncc(C2(O)CC3CC(c4nn(C)c(N)c4C(=O)Nc4ccc(F)c(Cl)c4)CC3C2)n1 (stereo not drawn) [Example 195] | < 10 nM | –
8 | Cn1nc(C2CC3CC(CNC(=O)C4(C)CC4)CC3C2)c(C(=O)Nc2ccc(F)c(Cl)c2)c1N (stereo not drawn) [Example 65, 5-Amino-N-(3-chloro-4-fluorophenyl)-1-methyl-3-(5-((1-methylcyclopropane-1-carboxamido)methyl)octahydropentalen-2-yl)-1H-pyrazole-4-carboxamide] | < 10 nM | –
9 | Cn1nc(C2CC3CC(O)(c4cc(C(F)(F)F)n[nH]4)CC3C2)c(C(=O)Nc2ccc(F)c(Cl)c2)c1N (stereo not drawn) [Example 223] | < 10 nM | –
10 | Cn1nc(C2CC3CC(CNC(=O)c4cnc(C(F)(F)F)s4)CC3C2)c(C(=O)Nc2ccc(F)c(Cl)c2)c1N (stereo not drawn) [Example 58, N-((5-(5-Amino-4-((3-chloro-4-fluorophenyl)carbamoyl)-1-methyl-1H-pyrazol-3-yl)octahydropentalen-2-yl)methyl)-2-(trifluoromethyl)thiazole-5-carboxamide] | 10 to 50 nM | –
11 | Cn1nc(C2CC3CC(O)(c4ccc(Oc5ccccc5)cc4)CC3C2)c(C(=O)Nc2ccc(F)c(Cl)c2)c1N (stereo not drawn) [Example 10, 5-Amino-N-(3-chloro-4-fluorophenyl)-3-(5-hydroxy-5-(4-phenoxyphenyl)octahydropentalen-2-yl)-1-methyl-1H-pyrazole-4-carboxamide] | < 10 nM | –
12 | Cn1nc(C2CC3CC(CNC(=O)C4CCN(C(=O)OC(C)(C)C)CC4)CC3C2)c(C(=O)Nc2ccc(F)c(Cl)c2)c1N (stereo not drawn) [Example 62, tert-Butyl 4-(((5-(5-amino-4-((3-chloro-4-fluorophenyl)carbamoyl)-1-methyl-1H-pyrazol-3-yl)octahydropentalen-2-yl)methyl)carbamoyl)piperidine-1-carboxylate] | < 10 nM | –
13 | Cn1nc(C2CC3CC(O)(c4ccccc4)CC3C2)c(C(=O)Nc2ccc(F)c(Cl)c2)c1N (stereo not drawn) [Example 1, 5-Amino-N-(3-chloro-4-fluorophenyl)-3-(5-hydroxy-5-phenyl-octahydropentalen-2-yl)-1-methyl-1H-pyrazole-4-carboxamide] | < 10 nM | –
14 | Cn1nc(C2CC3CC(CNC(=O)C(C)(C)C(F)(F)F)CC3C2)c(C(=O)Nc2ccc(F)c(Cl)c2)c1N (stereo not drawn) [Example 66, 5-Amino-N-(3-chloro-4-fluorophenyl)-1-methyl-3-(5-((3,3,3-trifluoro-2,2-dimethylpropanamido)methyl)octahydropentalen-2-yl)-1H-pyrazole-4-carboxamide] | 10 to 50 nM | –
15 | COC(=O)CCC(=O)OCn1cc(C2(O)CC3CC(c4nn(C)c(N)c4C(=O)Nc4ccc(F)c(Cl)c4)CC3C2)c(C(F)(F)F)n1 (stereo not drawn) [Example 226] | < 10 nM | –
16 | Cn1nncc1C1(O)CC2CC(c3nn(C)c(N)c3C(=O)Nc3ccc(F)c(Cl)c3)CC2C1 (stereo not drawn) [Example 25, 5-Amino-N-(3-chloro-4-fluorophenyl)-3-(5-hydroxy-5-(1-methyl-1H-1,2,3-triazol-5-yl)octahydropentalen-2-yl)-1-methyl-1H-pyrazole-4-carboxamide] | < 10 nM | –
17 | CC(C)n1nc(N)cc1C1(O)CC2CC(c3nn(C)c(N)c3C(=O)Nc3ccc(F)c(Cl)c3)CC2C1 (stereo not drawn) [Example 211] | < 10 nM | –
18 | Cn1nc(C2CC3CC(O)(Cc4ccccn4)CC3C2)c(C(=O)Nc2ccc(F)c(Cl)c2)c1N (stereo not drawn) [Example 164] | 10 to 50 nM | –

Row | SMILES | EC50 [1] | other results
19 | Cn1nc(C(F)(F)F)c(C2(O)CC3CC(c4nn(C)c(N)c4C(=O)Nc4ccc(F)c(Cl)c4)CC3C2)n1 (stereo not drawn) [Example 207] | < 10 nM | –
20 | Cc1ccccc1C1(O)CC2CC(c3nn(C)c(N)c3C(=O)Nc3ccc(F)c(Cl)c3)CC2C1 (stereo not drawn) [Example 8, 5-Amino-N-(3-chloro-4-fluorophenyl)-3-(5-hydroxy-5-(o-tolyl)octahydropentalen-2-yl)-1-methyl-1H-pyrazole-4-carboxamide] | < 10 nM | –
21 | Cn1nc(C2CC3CC(F)(CC(F)F)CC3C2)c(C(=O)Nc2ccc(F)c(Cl)c2)c1N (stereo not drawn) [Example 29, 5-Amino-N-(3-chloro-4-fluorophenyl)-3-(5-(2,2-difluoroethyl)-5-fluorooctahydropentalen-2-yl)-1-methyl-1H-pyrazole-4-carboxamide] | 10 to 50 nM | –
22 | Cn1nc(C2CC3CC(O)(CNc4ncc(C(F)F)cn4)CC3C2)c(C(=O)Nc2ccc(F)c(Cl)c2)c1N (single isomer, unassigned) [Example 202A] | – | EC50 (Table 1 ranges, read-out: Activity (viral load lowering EC50)): 10 to 50 nM
23 | Cc1nc(C2(O)CC3CC(c4nn(C)c(N)c4C(=O)Nc4ccc(F)c(Cl)c4)CC3C2)no1 (stereo not drawn) [Example 177] | < 10 nM | –
24 | Cn1nc(C2CC3CC(CNS(=O)(=O)c4ccc(F)cc4F)CC3C2)c(C(=O)Nc2ccc(F)c(Cl)c2)c1N (stereo not drawn) [Example 85, 5-Amino-N-(3-chloro-4-fluorophenyl)-3-(5-(((2,4-difluorophenyl)sulfonamido)methyl)octahydropentalen-2-yl)-1-methyl-1H-pyrazole-4-carboxamide] | < 10 nM | –
25 | Cn1nc(Br)c(C2(O)CC3CC(c4nn(C)c(N)c4C(=O)Nc4ccc(F)c(Cl)c4)CC3C2)n1 (stereo not drawn) [Example 194] | < 10 nM | –
26 | Cn1nc([N+](=O)[O-])cc1C1(O)CC2CC(c3nn(C)c(N)c3C(=O)Nc3ccc(F)c(Cl)c3)CC2C1 [Compd. 4-2, 5-amino-N-(3-chloro-4-fluorophenyl)-3-((2 s,3aR,5r,6aS)-5-hydroxy-5-(1-methyl-3-nitro-1H-pyrazol-5-yl)octahydropentalen-2-yl)-1-methyl-1H-pyrazole-4-carboxamide] | < 10 nM | –
27 | Cc1ccc([S+]([O-])C(F)(F)C2(O)CC3CC(c4nn(C)c(N)c4C(=O)Nc4ccc(F)c(Cl)c4)CC3C2)cc1 (stereo not drawn) [Example 36, 5-Amino-N-(3-chloro-4-fluorophenyl)-3-(5-(difluoro(p-tolylsulfinyl)methyl)-5-hydroxyoctahydropentalen-2-yl)-1-methyl-1H-pyrazole-4-carboxamide] | 10 to 50 nM | –
28 | Cn1nc(C2CC3CC(O)(c4c(Cl)c(N)nn4C)CC3C2)c(C(=O)Nc2ccc(F)c(Cl)c2)c1N (stereo not drawn) [Example 221] | < 10 nM | –
29 | Cn1nc(C2CC3CN(C(=O)OC4COC4)CC3C2)c(C(=O)Nc2ccc(F)c(Cl)c2)c1N (stereo not drawn) [Example 119, Oxetan-3-yl 5-(5-amino-4-((3-chloro-4-fluorophenyl)carbamoyl)-1-methyl-1H-pyrazol-3-yl)hexahydrocyclopenta[c]pyrrole-2(1H)-carboxylate] | 10 to 50 nM | –
30 | Cn1nc(C2CC3CC(CNC(=O)CC(F)(F)F)CC3C2)c(C(=O)Nc2ccc(F)c(Cl)c2)c1N (stereo not drawn) [Example 55, 5-Amino-N-(3-chloro-4-fluorophenyl)-1-methyl-3-(5-((3,3,3-trifluoropropanamido)methyl)octahydropentalen-2-yl)-1H-pyrazole-4-carboxamide] | < 10 nM | –
31 | Cn1nc(C2CC3CC(O)(c4n[nH]cc4C(F)(F)F)CC3C2)c(C(=O)Nc2ccc(F)c(Cl)c2)c1N (stereo not drawn) [Example 212] | < 10 nM | –
32 | Cn1nc(C2CC3CC(O)(c4cn(COC(=O)CCC(=O)OCc5ccccc5)nc4C(F)(F)F)CC3C2)c(C(=O)Nc2ccc(F)c(Cl)c2)c1N (stereo not drawn) [Example 230] | < 10 nM | –
33 | Cn1cc(Br)c(C2(O)CC3CC(c4nn(C)c(N)c4C(=O)Nc4ccc(F)c(Cl)c4)CC3C2)n1 (stereo not drawn) [Example 150] | < 10 nM | –
34 | Cn1nc(C2CC3CC(CNC(=O)C45CC(C4)C5)CC3C2)c(C(=O)Nc2ccc(F)c(Cl)c2)c1N (stereo not drawn) [Example 69, 5-Amino-3-(5-((bicyclo[1.1.1]pentane-1-carboxamido)methyl)octahydropentalen-2-yl)-N-(3-chloro-4-fluorophenyl)-1-methyl-1H-pyrazole-4-carboxamide] | < 10 nM | –
35 | Cn1nc(C2CC3CC(CNC(=O)c4ccc(C(F)(F)F)cc4)CC3C2)c(C(=O)Nc2ccc(F)c(Cl)c2)c1N (stereo not drawn) [Example 57, 5-Amino-N-(3-chloro-4-fluorophenyl)-1-methyl-3-(5-((4-(trifluoromethyl)benzamido)methyl)octahydropentalen-2-yl)-1H-pyrazole-4-carboxamide] | 10 to 50 nM | –
36 | CC(=O)NCC1CC2CC(c3nn(C)c(N)c3C(=O)Nc3ccc(F)c(Cl)c3)CC2C1 (stereo not drawn) [Example 54, 3-(5-(Acetamidomethyl)octahydropentalen-2-yl)-5-amino-N-(3-chloro-4-fluorophenyl)-1-methyl-1H-pyrazole-4-carboxamide] | < 10 nM | –
